{"source": "patent US20230035479A1", "about": "“METHODS AND COMPOSITIONS FOR REDUCING HAIR GREYING” (President and Fellows of Harvard College, priority 2019, published 2023)", "key": {"[1]": {"tested_on": "melanocyte stem cells (MeSCs)", "assay": "RNA-seq of FACS-purified MeSCs", "assay_type": "in vivo, mouse", "conditions": "12 hours after RTX injection", "description": "Examination of marker gene expression for diverse skin cell types confirmed successful enrichment for MeSCs (FIG. 12D). To uncover major molecular changes, Gene Ontology (GO) enrichment analysis was conducted (FIG. 5B). A list of known genes associated with MeSC proliferation and differentiation was curated (FIG. 5C, FIG. 12E). Moreover, a list of genes previously denoted for cell cycle entry was utilized to assess if cell cycle regulators are altered at the transcriptional level (FIG. 12F). Some of these key changes were also verified by quantitative RT-PCR (qRT-PCR) (FIG. 12G). […]\nMeSCs were purified using FACS from control and stressed mice skin samples at telogen based on their expression of CD117 [7], starting from a population that is negative for CD140a, CD45, Sca1, and CD34 [57]. […] Single-end sequencing reads were obtained using Illumina NextSeq 500 platform. Sequencing reads from RNA-seq libraries were trimmed using Trim Galore! […] Reads with alignment quality <Q30 were discarded. Gene expression levels were normalized and differential genes were calculated using DEseq2 package in R [60]. […] Transcripts Per Kilobase Million (TPM) calculated from count tables of Control MeSC samples were used to determine the expression levels of adrenergic receptors and glucocorticoid receptor shown in FIG. 2C."}, "sympathetic neurons": {"tested_on": "sympathetic neurons", "assay": "c-FOS immunofluorescence in sympathetic ganglia", "assay_type": "in vivo, mouse", "conditions": "after RTX injection"}}}
{"compound": "C=C(C)[C@]12C[C@@H](C)[C@@]34O[C@](Cc5ccccc5)(O[C@@H]1[C@@H]3C=C(COC(=O)Cc1ccc(O)c(OC)c1)C[C@]1(O)C(=O)C(C)=C[C@@H]41)O2", "note": "[RTX, resiniferatoxin]", "values": [{"measurement": "transcriptome changes in MeSCs", "setting": "[1]", "result": "upregulate proliferation and differentiation programs"}, {"measurement": "c-FOS induction in cell bodies of sympathetic neurons", "setting": "sympathetic neurons", "result": "Robust c-FOS induction"}, {"measurement": "time at which c-FOS induction diminishes", "setting": "sympathetic neurons", "result": "> 24", "unit": "h"}, {"measurement": "time of peak c-FOS induction", "setting": "sympathetic neurons", "result": "2 to 4", "unit": "h"}, {"measurement": "time to c-FOS induction", "setting": "sympathetic neurons", "result": "≤ 1", "unit": "h"}]}
